Experiments:
human CB2 receptor = target: T1, human CB2 receptor (Homo sapiens, UniProt P34972); test: CB2 radioligand competitive binding assay ([3H]CP 55,940 displacement); conditions: for IC50: [3H]CP 55,940 displacement, CHO-K1 membranes expressing human CB2 receptor; for Selectivity CB2: fold difference in binding between CB1 and CB2, shown in the column of the receptor with higher affinity, 1.00 in both = about same affinity
T1 construct: membranes prepared in house
Procedure: Compounds of the present disclosure were tested for CB1 receptor binding affinity and for CB2 receptor binding affinity. As used herein, “binding affinity” is represented by the IC50 value, which was experimentally determined as described herein. The lower the IC50 value the higher the binding affinity. A compound of the present disclosure may be said to have “binding selectivity” If it has a higher binding affinity for one receptor compared to the other.
The membranes were prepared from CHO-K1 (Chinese hamster ovary) cells stably transfected with the human CB2 receptor (Cat. #ES-111-C; Perkin Elmer, Boston, MA). The cells were grown adherently and maintained in Ham's F12 medium containing 10% fetal bovine serum (FBS), penicillin, streptomycin and geneticin (G418) at 37° C. in a humid atmosphere of 5% CO2 following the manufacturer's Instructions.
For membrane preparation the cells were washed with PBS and scraped off the plates in cold homogenization buffer (25 mM HEPES (pH 7.4), 2 mM EDTA) containing protease inhibitor cocktail (Sigma Cat. #P8340). The cell suspension was homogenized with a Pro-PK-01200D Polytron Homogenizer (Pro Scientific) and then centrifuged for 30 min at 120,000×g. The supernatant was discarded and the pellet was re-suspended in the homogenization buffer and stored at −80° C. until the time of use.
In this experiment, 3H radiolabeled CP 55,940, i.e. [3H]CP 55,940 (Perkin Elmer, Boston, MA), was used as a radioligand for the CB2 receptor to determine the binding affinity of compounds for the CB2 receptor (Scheme 8; above).
The competition binding experiments (single dose and dose-response) were performed by incubating 0.6 nM of [3H]CP55,940 (specific activity 101 Ci/mmol, Perkin Elmer) and different concentrations of compounds disclosed herein with membranes prepared as above from CHO-K1 cells expressing human CB2 receptor (1 μg of protein/well), 50 mM Tris-HCl (pH 7.4), 5 mM MgCl2, 1 mM CaCl2, and 2 mg/mL BSA.
For the single dose experiments, the compound stocks (usually 10 mM in DMSO) were diluted to working stocks in the binding buffer to give the final compound concentrations of 10 μM and 1 μM. For the dose-response experiments the test compounds were sequentially diluted to provide the desired concentration range for the IC50 determination. In each case the compounds were pre-incubated with the membrane for 20 min, before adding the radioligand.
After incubation with the radioligand for 60 min at 37° C., the incubation was terminated by rapid filtration of assay mixture through MultiScreen®HTS^+ 96-well filter plates (Millipore, Cat. #MSFCNXB), pre-soaked for 60 min with 50 mM Tris-HCl (pH 7.4) containing 0.33% polyethylenimine (PEI). The nonspecific binding (NSB) was determined in the presence of 10 μM unlabeled CP55,940. After drying the filter plate at 50° C. for at least 60 min, the filter-bound radioactivity was determined by scintillation spectrometry using the 1450 MicroBeta Plate Counter (Perkin Elmer, Boston, MA). From the dose-response experiments, the IC50 values were determined (see Table 1, CB2 IC50).

human CB1 receptor [1] = target: T2, human CB1 receptor (Homo sapiens, UniProt P21554); test: biochemical; type: binding; design: membranes prepared in house; conditions: for Selectivity CB1: fold difference in binding between CB1 and CB2, shown in the column of the receptor with higher affinity, 1.00 in both = about same affinity
T2 sequence (P21554 whole entry): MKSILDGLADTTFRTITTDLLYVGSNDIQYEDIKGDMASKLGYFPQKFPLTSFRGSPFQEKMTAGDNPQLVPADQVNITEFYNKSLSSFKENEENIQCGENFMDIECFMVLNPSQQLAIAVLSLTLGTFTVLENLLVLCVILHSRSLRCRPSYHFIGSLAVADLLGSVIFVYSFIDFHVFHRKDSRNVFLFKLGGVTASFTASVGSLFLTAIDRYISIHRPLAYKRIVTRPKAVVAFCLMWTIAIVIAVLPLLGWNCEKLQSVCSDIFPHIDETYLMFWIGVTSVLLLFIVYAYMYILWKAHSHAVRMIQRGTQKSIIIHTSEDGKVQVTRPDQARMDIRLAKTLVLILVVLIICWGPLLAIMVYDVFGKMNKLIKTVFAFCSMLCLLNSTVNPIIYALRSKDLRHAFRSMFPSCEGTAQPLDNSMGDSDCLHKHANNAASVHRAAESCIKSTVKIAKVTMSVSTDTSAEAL

human CB1 receptor [2] = target: T2, human CB1 receptor; test: PathHunter β-Arrestin functional assay, CB1 receptor, antagonist mode; type: cell-based; design: membranes prepared in house; conditions: for inhibition at 4 µM: read-out: relative inhibition in comparison to rimonabant

T1 sequence (P34972 whole entry): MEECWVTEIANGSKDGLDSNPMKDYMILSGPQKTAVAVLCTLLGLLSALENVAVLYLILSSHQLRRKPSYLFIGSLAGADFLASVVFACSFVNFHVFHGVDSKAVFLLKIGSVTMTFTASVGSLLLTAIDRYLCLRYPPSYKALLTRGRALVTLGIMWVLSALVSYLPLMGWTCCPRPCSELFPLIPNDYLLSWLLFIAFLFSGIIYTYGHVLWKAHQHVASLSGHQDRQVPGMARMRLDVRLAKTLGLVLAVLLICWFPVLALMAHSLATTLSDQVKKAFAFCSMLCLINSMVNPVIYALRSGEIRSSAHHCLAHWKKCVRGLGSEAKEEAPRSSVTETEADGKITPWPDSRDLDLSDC

SMILES	IC50 (human CB2 receptor) [nM]	Selectivity CB2 (human CB2 receptor) [fold]	IC50 (human CB1 receptor [1]) [nM]	Selectivity CB1 (human CB1 receptor [1]) [fold]	IC50 (human CB1 receptor [2]) [nM]	inhibition at 4 µM (human CB1 receptor [2]) [%]
C=C(C)[C@@H]1CCC(C)=C[C@H]1c1c(O)cc(CCCCC)c(S(=O)(=O)N(C)C)c1O (stereo in doubt) [Compound 21d, 2,6-dihydroxy-N,N,5′-trimethyl-4-pentyl-2′-(prop-1-en-2-yl)-1′,2′,3′,4′-tetrahydro-[1,1′-biphenyl]-3-sulfonamide]	100 to 990	1.41	100 to 990	–	–	–
C=C(C)[C@@H]1CCC(C)=C[C@H]1c1c(O)cc(CCCCC)c(S(=O)(=O)NC(C)C)c1O (stereo in doubt) [Compound 23d, 2,6-dihydroxy-N-isopropyl-5′-methyl-4-pentyl-2′-(prop-1-en-2-yl)-1′,2′,3′,4′-tetrahydro-[1,1′-biphenyl]-3-sulfonamide]	100 to 990	2.56	1000 to 5000	–	–	–
C=C(C)[C@@H]1CCC(C)=C[C@H]1c1c(O)cc(CCCCC)c(S(C)(=O)=O)c1O [Compound 3d, 5′-methyl-3-(methylsulfonyl)-4-pentyl-2′-(prop-1-en-2-yl)-1′,2′,3′,4′-tetrahydro-[1,1′-biphenyl]-2,6-diol]	1000 to 5000	2.00	1000 to 5000	–	–	–
CCCCCc1cc(O)c(C2C=C(C)CCC2)c(O)c1S(N)(=O)=O (stereo not shown) [Compound 19c, 2,6-dihydroxy-5′-methyl-4-pentyl-1′,2′,3′,4′-tetrahydro-[1,1′-biphenyl]-3-sulfonamide]	1000 to 5000	1.00	1000 to 5000	1.00	–	–
CCCCCc1cc(O)c(C2C=C(C)CCC2)c(O)c1S(=O)(=O)NC1CC1 (stereo not shown) [Compound 22c, N-cyclopropyl-2,6-dihydroxy-5′-methyl-4-pentyl-1′,2′,3′,4′-tetrahydro-[1,1′-biphenyl]-3-sulfonamide]	100 to 990	11.59	1000 to 5000	–	775 to 3000	11 to 79
C=C(C)[C@@H]1CCC(C)=C[C@H]1c1c(O)cc(CCCCC)c(S(=O)(=O)NC2CC2)c1O [Compound 22d, N-Cyclopropyl-2,6-Dihydroxy-5′-Methyl-4-Pentyl-2′-(Prop-1-En-2-Yl)-1′,2′,3′,4′-Tetrahydro-[1,1′-Biphenyl]-3-Sulfonamide]	1000 to 5000	1.52	1000 to 5000	–	775 to 3000	11 to 79
CCCCCc1cc(O)c(C2C=C(C)CCC2)c(O)c1S(=O)(=O)Nc1ccccc1 (stereo not shown) [Compound 24c, 2,6-dihydroxy-5′-methyl-4-pentyl-N-phenyl-1′,2′,3′,4′-tetrahydro-[1,1′-biphenyl]-3-sulfonamide]	100 to 990	3.60	1000 to 5000	–	–	–
C=C(C)[C@@H]1CCC(C)=C[C@H]1c1c(O)cc(CCCCC)c(S(=O)(=O)Nc2ccccc2)c1O [Compound 24d, 2,6-dihydroxy-5′-methyl-4-pentyl-N-phenyl-2′-(prop-1-en-2-yl)-1′,2′,3′,4′-tetrahydro-[1,1′-biphenyl]-3-sulfonamide]	1000 to 5000	1.67	1000 to 5000	–	–	–
CCCCCc1cc(O)c(C2C=C(C)CCC2)c(O)c1S(=O)(=O)NCc1ccccc1 (stereo not shown) [Compound 25c, N-benzyl-2,6-dihydroxy-5′-methyl-4-pentyl-1′,2′,3′,4′-tetrahydro-[1,1′-biphenyl]-3-sulfonamide]	100 to 990	1.50	100 to 990	–	–	–
C=C(C)[C@@H]1CCC(C)=C[C@H]1c1c(O)cc(CCCCC)c(S(=O)(=O)NCc2ccccc2)c1O [Compound 25d, N-benzyl-2,6-dihydroxy-5′-methyl-4-pentyl-2′-(prop-1-en-2-yl)-1′,2′,3′,4′-tetrahydro-[1,1′-biphenyl]-3-sulfonamide]	1000 to 5000	2.00	1000 to 5000	–	–	–
CCCCCc1cc(O)c(C2C=C(C)CCC2)c(O)c1S(=O)(=O)N1CCOCC1 (stereo not shown) [Compound 28c, 5′-methyl-3-(morpholinosulfonyl)-4-pentyl-1′,2′,3′,4′-tetrahydro-[1,1′-biphenyl]-2,6-diol]	100 to 990	–	–	–	775 to 3000	11 to 79
C=C(C)[C@@H]1CCC(C)=C[C@H]1c1c(O)cc(CCCCC)c(S(=O)(=O)N2CCOCC2)c1O [Compound 28d, 5′-Methyl-3-(Morpholinosulfonyl)-4-Pentyl-2′-(Prop-1-En-2-Yl)-1′,2′,3′,4′-Tetrahydro-[1,1′-Biphenyl]-2,6-Diol]	< 100	8.20	100 to 990	–	–	–
C=C(C)[C@@H]1CCC(C)=C[C@H]1c1c(O)cc(CCCCC)c(S(=O)(=O)N(CC)CC)c1O [Compound 62d, N,N-Diethyl-2,6-Dihydroxy-5′-Methyl-4-Pentyl-2′-(Prop-1-En-2-Yl)-1′,2′,3′,4′-Tetrahydro-[1,1′-Biphenyl]-3-Sulfonamide]	100 to 990	6.29	100 to 990	–	775 to 3000	11 to 79
C=C(C)[C@@H]1CCC(C)=C[C@H]1c1c(O)cc(CCCCC)c(S(=O)(=O)N(CCO)CCBr)c1O [Compound 63d, N-(2-bromoethyl)-2,6-dihydroxy-N-(2-hydroxyethyl)-5′-methyl-4-pentyl-2′-(prop-1-en-2-yl)-1′,2′,3′,4′-tetrahydro-[1,1′-biphenyl]-3-sulfonamide]	1000 to 5000	1.00	1000 to 5000	1.00	–	–
C=C(C)[C@@H]1CCC(C)=C[C@H]1c1c(O)cc(CCCCC)c(S(=O)(=O)OCC(F)(F)F)c1O [Compound 64d, 2,2,2-trifluoroethyl-2,6-dihydroxy-5′-methyl-4-pentyl-2′-(prop-1-en-2-yl)-1′,2′,3′,4′-tetrahydro-[1,1′-biphenyl]-3-sulfonate]	100 to 990	–	100 to 990	2.00	–	–
C=C(C)[C@@H]1CCC(C)=C[C@H]1c1c(O)cc(CCC)c(S(=O)(=O)N(C)C)c1O [Compound 67d, 2,6-dihydroxy-N,N,5′-trimethyl-2′-(prop-1-en-2-yl)-4-propyl-1′,2′,3′,4′-tetrahydro-[1,1′-biphenyl]-3-sulfonamide]	1000 to 5000	3.08	1000 to 5000	–	–	–
C=C(C)[C@@H]1CCC(C)=C[C@H]1c1c(O)cc(CCC)c(S(=O)(=O)NC(C)C)c1O [Compound 68d, 2,6-dihydroxy-N-isopropyl-5′-methyl-2′-(prop-1-en-2-yl)-4-propyl-1′,2′,3′,4′-tetrahydro-[1,1′-biphenyl]-3-sulfonamide]	1000 to 5000	1.74	1000 to 5000	–	–	–
CCCCCc1cc(O)c(C2C=C(C)CCC2)c(O)c1C(=O)NS(=O)(=O)c1cccnc1 (stereo not shown) [Compound 71c, 2,6-dihydroxy-5′-methyl-4-pentyl-N-(pyridin-3-ylsulfonyl)-1′,2′,3′,4′-tetrahydro-[1,1′-biphenyl]-3-carboxamide]	100 to 990	–	100 to 990	1.14	775 to 3000	11 to 79

Source: patent US12012373B2, “Cannabinoid derivatives” (CANOPY GROWTH CORPORATION, priority 2019, dated 2024)
